Columns and labels:
KB = test: Cytotoxicity against human KB cells assessed as cell viability measured by MTT assay; assay type: functional, cell-based
HepG2 = test: Cytotoxicity against human HepG2 cells assessed as cell viability measured by MTT assay; assay type: functional, cell-based
[1] = Cytotoxicity against human Lu1 cells assessed as cell viability measured by MTT assay; assay type: functional, cell-based
MCF7 = test: Cytotoxicity against human MCF7 cells assessed as cell viability measured by MTT assay; assay type: functional, cell-based
HEK293 = test: Cytotoxicity against human HEK293 cells assessed as cell viability measured by MTT assay; assay type: cell-based
Staphylococcus aureus = test: Antibacterial activity against Staphylococcus aureus measured by broth microdilution method; assay type: functional, organism-based
Bacillus subtilis = test: Antibacterial activity against Bacillus subtilis measured by broth microdilution method; assay type: functional, organism-based
[2] = tested on: Limosilactobacillus fermentum; test: Antibacterial activity against Lactobacillus fermentum measured by broth microdilution method; assay type: functional, organism-based
Escherichia = test: Antibacterial activity against Escherichia measured by broth microdilution method; assay type: functional, organism-based
Pseudomonas aeruginosa = test: Antibacterial activity against Pseudomonas aeruginosa measured by broth microdilution method; assay type: functional, organism-based
Salmonella enterica = test: Antibacterial activity against Salmonella enterica measured by broth microdilution method; assay type: functional, organism-based
Candida albicans = test: Antifungal activity against Candida albicans measured by broth microdilution method; assay type: functional, organism-based

CN1N=C(c2ccc([N+](=O)O)cc2)C(c2ccc([N+](=O)[O-])cc2)c2c1c1ccccc1c1nc3ccccc3nc21 (stereo not given)
IC50 (KB): > 100 µM | IC50 (HepG2): > 100 µM | IC50 [1]: > 100 µM | IC50 (MCF7): > 100 µM | IC50 (HEK293): > 100 µM | IC50 (Staphylococcus aureus): > 100 µM | IC50 (Bacillus subtilis): 77.9 µM | IC50 [2]: > 100 µM | IC50 (Escherichia): > 100 µM | IC50 (Pseudomonas aeruginosa): > 100 µM | IC50 (Salmonella enterica): > 100 µM | IC50 (Candida albicans): > 100 µM

CN1N=C(c2ccc3ccccc3c2)C(c2ccc3ccccc3c2)c2c1c1ccccc1c1nc3ccccc3nc21 (stereo not given)
IC50 (KB): > 100 µM | IC50 (HepG2): 81.4 µM | IC50 [1]: > 100 µM | IC50 (MCF7): > 100 µM | IC50 (HEK293): > 100 µM | IC50 (Staphylococcus aureus): > 100 µM | IC50 (Bacillus subtilis): > 100 µM | IC50 [2]: > 100 µM | IC50 (Escherichia): > 100 µM | IC50 (Pseudomonas aeruginosa): > 100 µM | IC50 (Salmonella enterica): > 100 µM | IC50 (Candida albicans): > 100 µM

CN1N=C(c2ccc(Cl)cc2)C(c2ccc(Cl)cc2)c2c1c1ccccc1c1nc3ccccc3nc21 (stereo not given)
IC50 (KB): > 100 µM | IC50 (HepG2): > 100 µM | IC50 [1]: > 100 µM | IC50 (MCF7): > 100 µM | IC50 (HEK293): > 100 µM | IC50 (Staphylococcus aureus): > 100 µM | IC50 (Bacillus subtilis): > 100 µM | IC50 [2]: > 100 µM | IC50 (Escherichia): > 100 µM | IC50 (Pseudomonas aeruginosa): > 100 µM | IC50 (Salmonella enterica): > 100 µM | IC50 (Candida albicans): > 100 µM

CN1N=C(c2ccc(S(C)(=O)=O)cc2)C(c2ccc(S(C)(=O)=O)cc2)c2c1c1ccccc1c1nc3ccccc3nc21 (stereo not given)
IC50 (KB): 62.5 µM | IC50 (HepG2): 44.7 µM | IC50 [1]: > 100 µM | IC50 (MCF7): 62.7 µM | IC50 (HEK293): > 100 µM | IC50 (Staphylococcus aureus): > 100 µM | IC50 (Bacillus subtilis): > 100 µM | IC50 [2]: > 100 µM | IC50 (Escherichia): > 100 µM | IC50 (Pseudomonas aeruginosa): > 100 µM | IC50 (Salmonella enterica): > 100 µM | IC50 (Candida albicans): > 100 µM

Cc1c2ccncc2c(C)c2c1[nH]c1ccccc12 [ELLIPTECINE]
IC50 (KB): 1.26 µM | IC50 (HepG2): 1.34 µM | IC50 [1]: 1.83 µM | IC50 (MCF7): 2.48 µM | IC50 (HEK293): 6.58 µM

COc1cccc(C2=NN(C)c3c(c4nc5ccccc5nc4c4ccccc34)C2c2cccc(OC)c2)c1 (stereo not given)
IC50 (KB): 64.4 µM | IC50 (HepG2): 36.3 µM | IC50 [1]: 56 µM | IC50 (MCF7): 70.7 µM | IC50 (HEK293): > 100 µM | IC50 (Staphylococcus aureus): > 100 µM | IC50 (Bacillus subtilis): 90.8 µM | IC50 [2]: > 100 µM | IC50 (Escherichia): > 100 µM | IC50 (Pseudomonas aeruginosa): > 100 µM | IC50 (Salmonella enterica): > 100 µM | IC50 (Candida albicans): > 100 µM

CN1N=C(c2ccccc2)C(c2ccccc2)c2c1c1ccccc1c1nc3ccccc3nc21 (stereo not given)
IC50 (KB): 19.4 µM | IC50 (HepG2): 10.5 µM | IC50 [1]: 18.6 µM | IC50 (MCF7): 22 µM | IC50 (HEK293): > 100 µM | IC50 (Staphylococcus aureus): > 100 µM | IC50 (Bacillus subtilis): > 100 µM | IC50 [2]: > 100 µM | IC50 (Escherichia): > 100 µM | IC50 (Pseudomonas aeruginosa): > 100 µM | IC50 (Salmonella enterica): > 100 µM | IC50 (Candida albicans): > 100 µM

CN1N=C(c2cccc(Br)c2)C(c2cccc(Br)c2)c2c1c1ccccc1c1nc3ccccc3nc21 (stereo not given)
IC50 (KB): > 100 µM | IC50 (HepG2): > 100 µM | IC50 [1]: > 100 µM | IC50 (MCF7): > 100 µM | IC50 (HEK293): > 100 µM | IC50 (Staphylococcus aureus): 84.4 µM | IC50 (Bacillus subtilis): 84.6 µM | IC50 [2]: > 100 µM | IC50 (Escherichia): > 100 µM | IC50 (Pseudomonas aeruginosa): > 100 µM | IC50 (Salmonella enterica): > 100 µM | IC50 (Candida albicans): > 100 µM

CC1(C)S[C@@H]2[C@H](NC(=O)[C@H](N)c3ccccc3)C(=O)N2[C@H]1C(=O)O [AMPICILLIN]
IC50 (Staphylococcus aureus): 0.02 µM | IC50 (Bacillus subtilis): 0.3 µM

CN1N=C(c2ccc(Br)cc2)C(c2ccc(Br)cc2)c2c1c1ccccc1c1nc3ccccc3nc21 (stereo not given)
IC50 (KB): > 100 µM | IC50 (HepG2): > 100 µM | IC50 [1]: > 100 µM | IC50 (MCF7): > 100 µM | IC50 (HEK293): > 100 µM | IC50 (Staphylococcus aureus): 4.21 µM | IC50 (Bacillus subtilis): 5.91 µM | IC50 [2]: > 100 µM | IC50 (Escherichia): > 100 µM | IC50 (Pseudomonas aeruginosa): > 100 µM | IC50 (Salmonella enterica): > 100 µM | IC50 (Candida albicans): > 100 µM

COc1ccc(C2=NN(C)c3c(c4nc5ccccc5nc4c4ccccc34)C2c2ccc(OC)cc2)cc1 (stereo not given)
IC50 (KB): 16.7 µM | IC50 (HepG2): 14.6 µM | IC50 [1]: 18.2 µM | IC50 (MCF7): 21.8 µM | IC50 (HEK293): 73.4 µM | IC50 (Staphylococcus aureus): > 100 µM | IC50 (Bacillus subtilis): > 100 µM | IC50 [2]: > 100 µM | IC50 (Escherichia): > 100 µM | IC50 (Pseudomonas aeruginosa): > 100 µM | IC50 (Salmonella enterica): > 100 µM | IC50 (Candida albicans): > 100 µM

From ChEMBL document CHEMBL4811261, “Synthesis and biological evaluation of novel benzo[a]pyridazino[3,4-c]phenazine derivatives” (Bioorg Med Chem Lett, 2021)
